The values that follow come from patent publication US11833137B2, “Substituted chromenones, IRE1 inhibitors, and methods of using same” (The Wistar Institute, priority 2018, dated 2023).

“Also recorded” adds a separate entry of the source.

The test system of data set [1] is XBP-1s expression, 5TGM1 cells. Briefly: XBP-1s immunoblot in 5TGM1 multiple myeloma cells. Format: cell-based, mouse. As to conditions: for suppression of XBP-1s expression, long term: 10 μM for a course of 3 days. The method, then: 5TGM1 mouse multiple myeloma cells, primary mouse B cells, primary mouse Eμ-TCL1 CLL cells, and human CLL cell lines (MEC2 and WaC3) were cultured at 37° C. in a 5% CO2 incubator using RPMI 1640 media (Gibco) supplemented with 10% heat-inactivated FBS, 2 mM L-glutamine, 100 U/mL penicillin G sodium, 1 mM sodium pyruvate, 0.1 mM non-essential amino acids, 100 μg/mL streptomycin sulfate and 0.1 mM β-mercaptoethanol (β-ME).
(§1) Cells were lysed using RIPA buffer (10 mM Tris-HCl, pH 7.4, 150 mM NaCl, 1% NP-40, 0.5% sodium deoxycholate, 0.1% SDS, and 1 mM EDTA) supplemented with protease inhibitors (Roche). Protein concentrations were determined by BCA assays (Pierce).
(§2) Samples were boiled in SDS-PAGE sample buffer (62.5 mM Tris-HCl, pH 6.8, 2% SDS, 10% glycerol, 0.1% bromophenol blue) with β-ME and analyzed by SDS-PAGE. Proteins were transferred to nitrocellulose membranes, blocked in 5% nonfat milk (wt/vol in PBS), and immunoblotted with indicated primary antibodies and appropriate horseradish peroxidase-conjugated secondary antibodies. Immunoblots were developed using Western Lighting Chemiluminescence Reagent (PerkinElmer).
To develop inhibitors with improved potency to target the IRE1/XBP-1 pathway, tricyclic chromenone-based IRE1 RNase inhibitors with different amine group (R^1) were synthesized and compared: allyloxycarbonyl (alloc) in B-H09 (1), —H in C-B06 (2), and —CH3 in C-D06 (3) (FIG. 1A). 5TGM1 multiple myeloma cells were chosen to evaluate inhibitory effects of these inhibitors because they have constitutively activated IRE1/XBP-1 pathways.
For orientation: A western blot detects proteins with antibodies after separation by electrophoresis.

Data set [2] can be described thus: Fluorescence stability (decomposition) in aqueous solution. Format: physicochemical. As to conditions: aqueous solution, 37° C., 0 to 48 h, versus D-F07. The procedure: (FIG. 2B) 5TGM1 cells were treated with DMSO or with 20 μM 2, 4, 3, or 7 dissolved in DMSO for 3 days and subjected to XTT assays. Percentages of growth were determined by comparing treated groups with control groups (DMSO). Each data point derived from four independent groups receiving exactly the same treatment was plotted as mean±SD. Results are representative of three independent experiments. […] The values of I/I0 were plotted as a function of time and shown in the inset. I0 was the initial fluorescence intensity of 4 at 0 h. […] The values of I/I0 were plotted as a function of time and shown in the inset. I0 was the initial fluorescence intensity of 5 at 0 h. […] (FIG. 2G) The decomposition rates of 7 and 8 were plotted as a function of time in RPMI media incubated at 37° C. Aliquots were analyzed by HPLC and the peaks integrated.
FIGS. 5A-5J illustrate the finding that installation of a boronate cage cleavable by H2O2 stabilizes the 1,3-dioxane acetal protective group of D-F07 to allow for temporal inhibition of XBP-1s upon contact with H2O2. (FIG. 5A) A scheme showing that installation of a boronate-caged group stabilizes the 1,3-dioxane acetal protective group to allow for H2O2-mediated release of intact D-F07. (FIG. 5B) The fluorescence of BC-D-F07a (2.5 μM in the DMSO/PBS solution (v/v=1:99), Ex=360 nm) increases upon incubation with 0 to 200 μM hydrogen peroxide at room temperature for 1 h. (FIG. 5C) The fluorescence of BC-D-F07b (2.5 μM in the DMSO/PBS solution (v/v=1:99), Ex=360 nm) increases upon incubation with 0 to 2 mM hydrogen peroxide at 37° C. for 1 h. […] I0 was the initial fluorescence intensity of D-F07, BC-D-F07a or BC-D-F07b at 0 h. (FIG. 5E) The levels of hydrogen peroxide produced by 5TGM1, 72-h LPS-stimulated primary CLL, MEC2, and WaC3 cells were measured by Amplex Red with or without the addition of extracellular catalase (500 U/mL). (FIG. 5F) 5TGM1 cells were treated with BC-D-F07a at increasing concentrations for 24 h, lysed, and analyzed for the expression of indicated proteins by immunoblots. (FIG. 5G) CD5+ CLL cells purified from spleens of Eμ-TCL1 mice were stimulated with […], subsequently treated with BC-D-F07a at 20 μM for 16 h, and then incubated with hydrogen peroxide at indicated concentrations for another 4 h. Cells were lysed and analyzed for the expression of indicated proteins by immunoblots. […] Cells were lysed and analyzed for the expression of indicated proteins by immunoblots. […] Percentages of growth were determined by comparing treated groups with control groups (DMSO). […]
UV-vis and fluorescence spectra were carried out on a BioTek SYNERGY™ NEO2 instrument (96 well plate).

The next data set concerns MEC2 cells. Put plainly: Cell proliferation XTT assay, MEC2. Format: cell-based, human. For orientation: Formazan colour is commonly taken as a measure of viable cells.
Data set [3] deals with XBP-1s expression, MEC2 cells. Briefly: XBP-1s immunoblot in MEC2 cells. The class given is cell-based, human. Conditions: 20 μM 16 h, then hydrogen peroxide 4 h. The method, then:
(§3) FIGS. 5A-5J illustrate the finding that installation of a boronate cage cleavable by H2O2 stabilizes the 1,3-dioxane acetal protective group of D-F07 to allow for temporal inhibition of XBP-1s upon contact with H2O2. (FIG. 5A) A scheme showing that installation of a boronate-caged group stabilizes the 1,3-dioxane acetal protective group to allow for H2O2-mediated release of intact D-F07. (FIG. 5B) The fluorescence of BC-D-F07a (2.5 μM in the DMSO/PBS solution (v/v=1:99), Ex=360 nm) increases upon incubation with 0 to 200 μM hydrogen peroxide at room temperature for 1 h. (FIG. 5C) The fluorescence of BC-D-F07b (2.5 μM in the DMSO/PBS solution (v/v=1:99), Ex=360 nm) increases upon incubation with 0 to 2 mM hydrogen peroxide at 37° C. for 1 h. […] I0 was the initial fluorescence intensity of D-F07, BC-D-F07a or BC-D-F07b at 0 h. (FIG. 5E) The levels of hydrogen peroxide produced by 5TGM1, 72-h LPS-stimulated primary CLL, MEC2, and WaC3 cells were measured by Amplex Red with or without the addition of extracellular catalase (500 U/mL). (FIG. 5F) 5TGM1 cells were treated with BC-D-F07a at increasing concentrations for 24 h, lysed, and analyzed for the expression of indicated proteins by immunoblots. […] Cells were lysed and analyzed for the expression of indicated proteins by immunoblots. […] Cells were lysed and analyzed for the expression of indicated proteins by immunoblots. […]

A further data set deals with 5TGM1 cells. Put plainly: Cell proliferation XTT assay, 5TGM1. Format: cell-based, mouse. The method, then: 5TGM1 cells were suspended in phenol red-free RPMI media, seeded in 96-well cell culture plates, and treated with indicated IRE1 inhibitors (20 μM, unless indicated otherwise). At indicated time points, cells were spun down and cell proliferation was assessed by XTT assays (Roche) according to the manufacturer's instructions. Briefly, 50 μl XTT labeling reagent, 1 μl electron-coupling reagent, and 100 μl phenol red-free RPMI media were combined and applied to each well of the 96-well plates. Cells were incubated for 4 h in a CO2 incubator to allow for the yellow tetrazolium salt XTT to be cleaved by mitochondrial dehydrogenases of metabolically active cells to form the orange formazan dye, which can be quantified at 492 nm using a BioTek SYNERGY™ NEO2 Multimode Reader.

The test system of data set [4] is XBP-1s expression, CD5+ CLL cells from Eμ-TCL1 mice. Briefly: XBP-1s immunoblot in primary CLL cells. The class given is cell-based, mouse. As to conditions: LPS-stimulated, 20 μM 16 h, then 0, 50 or 100 μM hydrogen peroxide 4 h. The procedure: as §3
Another data set relates to WaC3 cells. Briefly: Cell proliferation XTT assay, WaC3. Conditions: 20 μM for a course of 3 days. Format: cell-based, human.
The nature of data set [5]: In vivo pharmacokinetics, serum fluorescence. Set-up: species or system Eμ-TCL1 mouse. Conditions: single intraperitoneal injection of 58 mg/kg D-F07. The method, then: In vivo pharmacokinetics studies were carried out by intraperitoneally injecting 58 mg/kg D-F07 (347.36 Daltons) or 96 mg/kg TC-D-F07 (577.52 Daltons) into each Eμ-TCL1 mouse to achieve equivalent molar concentrations in the sera. Blood was collected via submandibular bleeding into an Eppendorf tube at 0.25-, 0.5-, 1-, and 1.5-h time points after a single injection. Blood samples were stored at room temperature for 5 min, placed on wet ice for 5 min, and centrifuged at 15,000 rpm/min for 5 min to obtain sera. D-F07 in sera was quantified by measuring the fluorescence intensity using a BioTek SYNERGY™ NEO2 Multimode Reader (Ex/Em: 350/456 nm). Each fluorescent reading value was adjusted by subtracting the background from serum samples without D-F07. D-F07 concentrations were calculated by fitting individual data points in a linear standard equation, y=bx+c. The D-F07 standard curve was created by measuring the fluorescence intensity in serum samples containing serially diluted D-F07. Data derived from three mice receiving the same treatment were plotted as means±SEM.

The nature of data set [6]: Solubility in organic solvent (DMSO). Format: physicochemical. Conditions: such as DMSO.
The subject of data set [7] is XBP-1s expression, LPS-stimulated primary mouse B cells. Put plainly: XBP-1s immunoblot in LPS-stimulated primary B cells. As to conditions: 2.5 or 5 μM for 2 h. Format: cell-based. The procedure: FIG. 8 illustrates chemical structures of 6, 4, 7, 8, and 9. Primary B cells purified from spleens of wild-type mice were stimulated with LPS for 72 h, subsequently treated with indicated inhibitors at 2.5 or 5 μM for 2 h, lysed, and analyzed for the expression of indicated proteins by immunoblots.
as §1, §2
LPS-stimulated primary mouse B cells were similarly treated with the same inhibitors at 2.5 or 5 μM for 2 h. […] HPLC degradation experiments confirmed that this was indeed the case (FIG. 2G).

Data set [8] is described as follows: Compound degradation HPLC assay. The class given is physicochemical. As to conditions: RPMI media, 37° C. The method, then:
A 20 mM DMSO stock solution of analyte compounds (7, 8, D-F07, PC-D-F07 and TC-D-F07) were diluted to 400 μM with PBS, pH 7.4, or to 800 μM with RMPI plus 10% FBS culture media (experiments with TC-D-F07 were performed using RPMI without FBS). After incubation at 37° C., aliquots at various time points were injected onto an analytical HPLC instrument and the peaks integrated (UV monitored at 220 nm). Intact compound relative to t=0 was plotted as a function of time.

`COc1cc2c3c(c(=O)oc2c(C2OCCCO2)c1OCc1ccc(B2OC(C)(C)C(C)(C)O2)cc1)CN(C)CC3` [BC-D-F07a, 7-(1,3-dioxan-2-yl)-9-methoxy-3-methyl-8-((4-(4,4,5,5-tetramethyl-1,3,2-dioxaborolan-2-yl)benzyl)oxy)-1,2,3,4-tetrahydro-5H-chromeno[3,4-c]pyridin-5-one]: the “suppression of XBP-1s” value in data set [1] (increasing concentrations, 24 h) is given as “dose-dependent suppression of XBP-1s”; in [3], “more efficient suppression of XBP-1s”. Further, the “hydrolysis of 1,3-dioxane acetal by fluorescence decay” value in [2] is “stabilized the 1,3-dioxane acetal protecting group”. In addition, the “growth inhibition (XTT)” value in the data set on MEC2 cells (20 μM for 2 days) is “less capable than D-F07 in inhibiting growth of MEC2 cells”. Moreover, the “growth suppression (XTT)” value in the data set on 5TGM1 cells (20 μM for 2 days) is on record as “could not efficiently oxidize BC-D-F07a, inhibit XBP-1s, or suppress cell growth”. Also, in data set [4], the “suppression of XBP-1s expression” value is “suppress the expression of XBP-1s”.
On to `COc1cc2c3c(c(=O)oc2c(C2OCCCO2)c1O)CN(C)CC3` [D-F07, 7-(1,3-dioxan-2-yl)-8-hydroxy-9-methoxy-3-methyl-1,2,3,4-tetrahydro-5H-chromeno[3,4-c]pyridin-5-one], for which the “growth suppression (XTT)” value in the data set on WaC3 cells is “initially more potent than 7 and 8 in suppressing WaC3 cell growth; also recorded: suppressed WaC3 cell growth potently”. For the same compound, the “suppression of XBP-1s after removal of compound from media” value in data set [1] (10 μM 4 h, washed, UV 10 min, 8 h culture) was “failed to suppress XBP-1s continuously”. The “suppression of XBP-1s expression, long term” value (“suppression … long term” below) in [1] was “better long-term efficacy in suppressing the expression of XBP-1s than 7 and 10”. Also, the “overall comparison of inhibition of IRE-1 / XBP-1s expression in whole cells” value in [1] (summary statement) is recorded as “most potent effect in inhibiting the expression of XBP-1s in whole cells”. In the data set on MEC2 cells (indicated concentrations, 24 h), the “cytotoxicity / growth inhibition (XTT)” value is recorded as “not cytotoxic to MEC2 cells”. In the data set with 5TGM1 cells (20 μM for a course of 3 days), the “growth inhibition / cytotoxicity (XTT)” value is “higher cytotoxicity than 3 and 7”. The peak serum concentration in [5] is recorded as 10203 ng/mL.
As to `COc1cc2c3c(c(=O)oc2c(C2OCCCO2)c1O)CNCC3` [Compound 11, 7-(1,3-dioxan-2-yl)-8-hydroxy-9-methoxy-1,2,3,4-tetrahydro-5H-chromeno[3,4-c]pyridin-5-one], the “suppression … long term” value in data set [1] is “more potent than 4 in suppressing XBP-1s expression; also recorded: less potent than D-F07 in suppressing the expression of XBP-1s”. Also, the “solubility relative to 4” value in [6] is “at least 16 times less soluble”.
Take `CC(=O)N/N=C/c1c(O)ccc2c3c(c(=O)oc12)CN(C)CC3` [Compound 8, (E)-N′-((8-hydroxy-3-methyl-5-oxo-1,3,4,5-tetrahydro-2H-chromeno[3,4-c]pyridin-7-yl)methylene)acetohydrazide]: in [1] (2.5 μM for 1, 2 or 4 h), the “inhibition of XBP-1s expression, short term” value is “rapidly inhibited XBP-1s; also recorded: effectively inhibit the expression of XBP-1s for longer than 4 h; also recorded: inhibited the expression of XBP-1s more rapidly than 7”. In addition, the “suppression … long term” value in data set [1] is on record as “lost its inhibitory effect after treatment for 2 days”. Further, the “suppression of XBP-1s expression” value in [7] is reported as “rapidly suppressed the expression of XBP-1s”. In [8], the “hydrolysis rate (HPLC degradation)” value is “faster hydrolysis relative to 7”.
